Results published in patent US9382254B2, “Compounds and pharmaceutical compositions thereof for the treatment of cystic fibrosis” (Galapagos NV, priority 2013, dated 2016).
pEC50: −log10 of the molar value. Each block holds one molecule with its values, some of them ahead of it.

Columns and labels:
Assay type in all cases: cell-based
CFTR G551D mutant = target: T1, CFTR G551D mutant (Homo sapiens, UniProt P13569, G551D); assay: YFP-halide influx assay for the CFTR-G551D mutation; conditions: HEK293 cells, forskolin 10.67 μM
T1 construct: expressed in transfected cells; host or cells: HEK293 (reverse transfection with plasmid)
T1 sequence (P13569 whole entry G551D): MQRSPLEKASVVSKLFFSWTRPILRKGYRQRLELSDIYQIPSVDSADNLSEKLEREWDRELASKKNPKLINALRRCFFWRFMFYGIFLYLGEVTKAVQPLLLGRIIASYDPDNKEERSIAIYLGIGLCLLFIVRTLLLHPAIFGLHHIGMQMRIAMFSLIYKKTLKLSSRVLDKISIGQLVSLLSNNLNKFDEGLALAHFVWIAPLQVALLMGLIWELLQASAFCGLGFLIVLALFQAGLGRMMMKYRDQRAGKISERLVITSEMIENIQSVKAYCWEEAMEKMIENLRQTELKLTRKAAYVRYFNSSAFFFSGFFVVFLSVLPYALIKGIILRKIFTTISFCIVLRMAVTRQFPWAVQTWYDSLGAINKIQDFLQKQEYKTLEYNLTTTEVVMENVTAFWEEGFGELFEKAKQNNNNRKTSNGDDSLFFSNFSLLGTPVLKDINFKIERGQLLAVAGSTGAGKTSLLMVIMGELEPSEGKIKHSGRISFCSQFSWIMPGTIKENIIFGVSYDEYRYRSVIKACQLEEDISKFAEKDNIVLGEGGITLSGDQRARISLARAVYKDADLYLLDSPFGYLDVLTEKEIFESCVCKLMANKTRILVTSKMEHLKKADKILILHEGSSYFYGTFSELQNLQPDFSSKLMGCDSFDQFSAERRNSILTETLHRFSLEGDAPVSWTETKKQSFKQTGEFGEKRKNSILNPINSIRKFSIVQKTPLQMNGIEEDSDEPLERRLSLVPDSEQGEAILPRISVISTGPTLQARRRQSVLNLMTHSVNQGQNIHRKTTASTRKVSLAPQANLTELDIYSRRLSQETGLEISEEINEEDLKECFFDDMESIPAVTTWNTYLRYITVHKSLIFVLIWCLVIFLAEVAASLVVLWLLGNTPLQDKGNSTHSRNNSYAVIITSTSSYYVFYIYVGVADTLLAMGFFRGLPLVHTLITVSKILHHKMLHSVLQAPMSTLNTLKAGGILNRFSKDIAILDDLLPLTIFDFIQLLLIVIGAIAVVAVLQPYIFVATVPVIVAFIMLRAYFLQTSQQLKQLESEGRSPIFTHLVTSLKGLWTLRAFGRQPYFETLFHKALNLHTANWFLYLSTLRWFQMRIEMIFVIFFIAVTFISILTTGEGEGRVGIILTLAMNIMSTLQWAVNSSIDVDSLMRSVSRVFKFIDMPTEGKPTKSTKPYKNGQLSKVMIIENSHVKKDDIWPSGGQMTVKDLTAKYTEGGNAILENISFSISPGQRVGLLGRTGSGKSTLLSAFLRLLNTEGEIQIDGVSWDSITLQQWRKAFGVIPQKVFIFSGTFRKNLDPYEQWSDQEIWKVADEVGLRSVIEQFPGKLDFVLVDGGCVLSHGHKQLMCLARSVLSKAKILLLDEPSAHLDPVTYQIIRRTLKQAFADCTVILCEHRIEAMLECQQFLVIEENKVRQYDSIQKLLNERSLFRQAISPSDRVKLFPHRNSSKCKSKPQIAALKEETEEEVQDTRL
Outline: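 Channel opening potentiation measured as 1−F/F0, where F is YFP fluorescence 7 s after iodide injection and F0 before; EC50 taken from concentration plot. Cells: HEK293 transiently expressing CFTR G551D plus halide-sensitive YFP (H148Q, I152L, F47L), 24 h at 37 °C, 5% CO2.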

CFTR ΔF508 mutant [1] = target: T2, CFTR ΔF508 mutant (Homo sapiens, UniProt P13569, DEL508-508); assay: YFP-halide influx assay for the CFTR-ΔF508 mutation (384 well, FDSS/μCell); conditions: CFBE41o- cells, CFTR-ΔF508, 1×D-PBS, fluorescence after 36 seconds
T2 construct: expressed in transfected cells; host or cells: CFBE41o- (adenoviral transduction)
T2 sequence (P13569 with tags, fused parts or gaps DEL508-508): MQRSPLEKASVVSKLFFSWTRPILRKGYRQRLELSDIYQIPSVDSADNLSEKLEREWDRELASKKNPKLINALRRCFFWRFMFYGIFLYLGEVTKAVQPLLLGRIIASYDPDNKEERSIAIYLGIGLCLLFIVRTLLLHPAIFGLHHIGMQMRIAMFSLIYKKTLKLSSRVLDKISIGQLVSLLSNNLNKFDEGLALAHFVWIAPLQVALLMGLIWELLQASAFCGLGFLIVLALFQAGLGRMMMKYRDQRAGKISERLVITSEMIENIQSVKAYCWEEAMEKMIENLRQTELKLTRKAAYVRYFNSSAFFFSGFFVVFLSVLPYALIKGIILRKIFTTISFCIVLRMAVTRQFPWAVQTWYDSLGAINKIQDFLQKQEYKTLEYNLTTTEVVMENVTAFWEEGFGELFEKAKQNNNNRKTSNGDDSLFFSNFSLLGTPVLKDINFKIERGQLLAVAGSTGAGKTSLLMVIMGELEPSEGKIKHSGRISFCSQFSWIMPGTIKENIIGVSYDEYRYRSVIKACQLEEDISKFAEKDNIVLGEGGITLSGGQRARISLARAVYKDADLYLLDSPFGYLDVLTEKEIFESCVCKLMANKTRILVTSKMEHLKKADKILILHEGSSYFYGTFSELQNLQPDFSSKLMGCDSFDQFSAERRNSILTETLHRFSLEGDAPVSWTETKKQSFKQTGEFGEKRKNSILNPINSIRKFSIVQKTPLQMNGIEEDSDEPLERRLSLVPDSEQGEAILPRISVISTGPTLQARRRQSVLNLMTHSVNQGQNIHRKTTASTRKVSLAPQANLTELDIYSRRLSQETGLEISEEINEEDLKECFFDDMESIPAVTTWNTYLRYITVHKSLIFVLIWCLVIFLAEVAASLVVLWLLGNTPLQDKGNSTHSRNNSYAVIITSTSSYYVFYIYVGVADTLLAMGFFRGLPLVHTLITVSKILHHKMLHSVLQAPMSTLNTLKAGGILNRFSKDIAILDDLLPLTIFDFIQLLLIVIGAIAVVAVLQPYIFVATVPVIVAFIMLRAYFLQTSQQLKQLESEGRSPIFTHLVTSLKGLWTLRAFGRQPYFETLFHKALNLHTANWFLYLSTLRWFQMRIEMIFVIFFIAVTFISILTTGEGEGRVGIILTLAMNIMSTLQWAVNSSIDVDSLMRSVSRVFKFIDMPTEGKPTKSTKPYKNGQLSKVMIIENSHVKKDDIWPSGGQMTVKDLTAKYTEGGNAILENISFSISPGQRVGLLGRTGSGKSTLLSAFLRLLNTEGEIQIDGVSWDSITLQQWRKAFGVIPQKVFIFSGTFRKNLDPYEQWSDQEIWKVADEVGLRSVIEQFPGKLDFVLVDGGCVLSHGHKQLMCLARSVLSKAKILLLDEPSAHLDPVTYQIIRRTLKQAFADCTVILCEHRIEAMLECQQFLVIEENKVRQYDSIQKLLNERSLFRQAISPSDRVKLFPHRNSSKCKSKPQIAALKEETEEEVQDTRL
Outline: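 Potentiator read-out as 1−F/F0, F taken 36 s after iodide addition, EC50 fitted against compound concentration. Cells: CFBE41o- expressing ΔF508 CFTR plus halide-sensitive YFP via adenovirus, rescued by 27 °C for 24 h or 24 h modulator at 37 °C.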

CFTR ΔF508 mutant [2] = target: T2, CFTR ΔF508 mutant; assay: YFP-halide influx assay for the CFTR-ΔF508 mutation, gluconate buffer; conditions: CFBE41o- cells, forskolin 10.67 μM
Outline: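 Channel opening is read as the fall in YFP fluorescence over 7 s following iodide injection, expressed as 1-F/F0 and plotted versus compound concentration to derive EC50. Cells used were CFBE41o- expressing adenoviral ΔF508 CFTR and halide-sensitive YFP, rescued by 24 h at 27 °C or 24 h modulator treatment at 37 °C.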

CFTR ΔF508 mutant [3] = target: T2, CFTR ΔF508 mutant; assay: YFP-halide influx assay for the CFTR-ΔF508 mutation, PBS buffer (96 well); conditions: CFBE41o- cells, forskolin 10.67 μM
Source text: The YFP halide influx assay measures the functionality of the cystic fibrosis Transmembrane Conductance regulator (CFTR) channels in the cystic fibrosis bronchial epithelium cell line CFBE41o-. The assay is used to evaluate the capacity of compounds to increase the open probability of existing CFTR channels in the membrane. It makes use of the observation that the yellow fluorescent protein (YFP) variant YFP H148Q, I152L has its fluorescence substantially quenched by halide ions like Cl^− and I^−. (Galietta, Haggie, & Verkman, 2001) (Nagai, et al., 2002)
For this purpose, CFBE41o-cells are seeded in 96 well plates (6000 CFBE cells/well). One day after seeding, the CFBE cells are transduced with adenoviral vectors that direct the expression of the CFTR ΔF508 mutant and of the YFP reporter. Cells are incubated at 27° C., 5% CO2 for 24 hours so as to allow for the proper folding and migration to the membrane of the CFTR channel or treated with a CFTR modulator during 24 hours at 37° C.
The I^− induced quenching of fluorescence is recorded immediately after injection of I^− for 7 seconds. The capacity of a compound to increase the channel opening is directly correlated with the decrease in fluorescence, and is expressed as (1-(fluorescence after 7 seconds (F)/fluorescence before injection (F0))) and an EC50 can be derived from a (1-F/F0) vs compound concentration plot.

SMILES: NC(=O)c1cc(S(=O)(=O)N2CCOCC2)sc1NC(=O)c1ccc(F)cc1O [Compound 198, 2-(4-fluoro-2-hydroxybenzamido)-5-(morpholinosulfonyl)thiophene-3-carboxamide]
pEC50 (CFTR G551D mutant): 6.87
pEC50 (CFTR ΔF508 mutant [1]): 7.69
pEC50 (CFTR ΔF508 mutant [2]): 7.01

SMILES: CC(C)N(C)S(=O)(=O)c1cc(C(N)=O)c(NC(=O)c2cc[nH]n2)s1 [Compound 210, N-(3-carbamoyl-5-(N-isopropyl-N-methylsulfamoyl)thiophen-2-yl)-1H-pyrazole-3-carboxamide]
pEC50 (CFTR G551D mutant): 6.33
pEC50 (CFTR ΔF508 mutant [1]): 7.87
pEC50 (CFTR ΔF508 mutant [2]): 7.13

SMILES: COCCC(=O)Nc1sc(S(=O)(=O)c2ccc(F)cc2)cc1C(N)=O [Compound 229, 5-(4-fluorophenylsulfonyl)-2-(3-methoxypropanamido) thiophene-3-carboxamide]
pEC50 (CFTR ΔF508 mutant [3]): 5.51

SMILES: NC(=O)c1cc(S(=O)(=O)c2ccc(F)cc2)sc1NC(=O)c1cccnc1F [Compound 230, N-(3-carbamoyl-5-(4-fluorophenylsulfonyl)thiophen-2-yl)-2-fluoronicotinamide]
pEC50 (CFTR ΔF508 mutant [3]): 6.01

SMILES: CC1COCC(C)N1S(=O)(=O)c1cc(C(N)=O)c(NC(=O)C2(O)CC2)s1 (centres unmarked) [Compound 234, 5-(3,5-dimethylmorpholinosulfonyl)-2-(1-hydroxycyclopropanecarboxamido) thiophene-3-carboxamide]
pEC50 (CFTR ΔF508 mutant [3]): 6.55

SMILES: CC1CN(S(=O)(=O)c2cc(C(N)=O)c(NC(=O)C3(O)CC3)s2)CC(C)O1 (centres unmarked) [Compound 238, 5-(2,6-dimethylmorpholinosulfonyl)-2-(1-hydroxycyclopropanecarboxamido) thiophene-3-carboxamide]
pEC50 (CFTR ΔF508 mutant [3]): 6.65

SMILES: COC1CCN(S(=O)(=O)c2cc(C(N)=O)c(NC(=O)C3(O)CC3)s2)CC1 [Compound 239, 2-(1-hydroxycyclopropanecarboxamido)-5-(4-methoxypiperidin-1-ylsulfonyl)thiophene-3-carboxamide]
pEC50 (CFTR ΔF508 mutant [3]): 6.53

SMILES: CC1CN(S(=O)(=O)c2cc(C(N)=O)c(NC(=O)C3(O)CC3)s2)CCO1 (centres unmarked) [Compound 240, 2-(1-hydroxycyclopropanecarboxamido)-5-(2-methylmorpholinosulfonyl) thiophene-3-carboxamide]
pEC50 (CFTR ΔF508 mutant [3]): 6.21

SMILES: CC1(C)COCCN1S(=O)(=O)c1cc(C(N)=O)c(NC(=O)C2(O)CC2)s1 [Compound 241, 5-(3,3-dimethylmorpholinosulfonyl)-2-(1-hydroxycyclopropanecarboxamido) thiophene-3-carboxamide]
pEC50 (CFTR ΔF508 mutant [3]): 6.61

SMILES: COC1CN(S(=O)(=O)c2cc(C(N)=O)c(NC(=O)C3(O)CC3)s2)C1 [Compound 243, 2-(1-hydroxycyclopropanecarboxamido)-5-(3-methoxyazetidin-1-ylsulfonyl)thiophene-3-carboxamide]
pEC50 (CFTR ΔF508 mutant [3]): 5.79

SMILES: NC(=O)c1cc(S(=O)(=O)c2ccc(F)cc2)sc1NC(=O)c1cccnn1 [Compound 249, N-(3-carbamoyl-5-(4-fluorophenylsulfonyl)thiophen-2-yl)pyridazine-3-carboxamide]
pEC50 (CFTR ΔF508 mutant [3]): 5.54

SMILES: NC(=O)c1cc(S(=O)(=O)c2ccc(F)cc2)sc1NC(=O)c1ccnnc1 [Compound 250, N-(3-carbamoyl-5-(4-fluorophenylsulfonyl)thiophen-2-yl) pyridazine-4-carboxamide]
pEC50 (CFTR ΔF508 mutant [3]): < 6.00

SMILES: NC(=O)c1cc(S(=O)(=O)c2ccc(F)cc2)sc1NC(=O)c1ccc(F)cn1 [Compound 266, N-(3-carbamoyl-5-(4-fluorophenylsulfonyl)thiophen-2-yl)-5-fluoropicolinamide]
pEC50 (CFTR ΔF508 mutant [3]): 6.71

SMILES: NC(=O)c1cc(S(=O)(=O)c2ccc(F)cc2)sc1Nc1ccccn1 [Compound 267, 5-(4-fluorophenylsulfonyl)-2-(pyridin-2-ylamino) thiophene-3-carboxamide]
pEC50 (CFTR ΔF508 mutant [3]): 6.19

SMILES: CC(C)=CC(=O)Nc1sc(S(=O)(=O)c2ccc(F)cc2)cc1C(N)=O [Compound 274, 5-(4-fluorophenylsulfonyl)-2-(3-methylbut-2-enamido) thiophene-3-carboxamide]
pEC50 (CFTR ΔF508 mutant [3]): 6.64

SMILES: NC(=O)c1cc(S(=O)(=O)c2ccc(F)cc2)sc1NC(=O)C(O)(C(F)(F)F)C(F)(F)F [Compound 275, 5-(4-fluorophenylsulfonyl)-2-(3,3,3-trifluoro-2-hydroxy-2-(trifluoromethyl)propanamido) thiophene-3-carboxamide]
pEC50 (CFTR G551D mutant): 5.77
pEC50 (CFTR ΔF508 mutant [3]): 6.66

SMILES: COCCOC(C)C(=O)Nc1sc(S(=O)(=O)c2ccc(F)cc2)cc1C(N)=O (centres unmarked) [Compound 276, 5-(4-fluorophenylsulfonyl)-2-(2-(2-methoxyethoxy)propanamido) thiophene-3-carboxamide]
pEC50 (CFTR G551D mutant): 5.48
pEC50 (CFTR ΔF508 mutant [3]): 6.11

Now from value to molecule:

pEC50 (CFTR G551D mutant): 5.98
pEC50 (CFTR ΔF508 mutant [3]): 6.89
SMILES: CN(C1CC1)S(=O)(=O)c1cc(C(N)=O)c(NC(=O)C2(O)CC2)s1 [Compound 232, 5-(N-cyclopropyl-N-methylsulfamoyl)-2-(1-hydroxycyclopropanecarboxamido) thiophene-3-carboxamide]

pEC50 (CFTR G551D mutant; class symbol): < 6.00
pEC50 (CFTR ΔF508 mutant [3]): 6.89
SMILES: CC(C)N(C(C)C)S(=O)(=O)c1cc(C(N)=O)c(NC(=O)C2(O)CC2)s1 [Compound 233, 5-(N,N-diisopropylsulfamoyl)-2-(1-hydroxycyclopropanecarboxamido) thiophene-3-carboxamide]

pEC50 (CFTR ΔF508 mutant [1]): 7.12
pEC50 (CFTR ΔF508 mutant [3]): 7.33
SMILES: COc1ccc(CN(C)S(=O)(=O)c2cc(C(N)=O)c(NC(=O)C3(O)CC3)s2)cc1 [Compound 235, 2-(1-hydroxycyclopropanecarboxamido)-5-(N-(4-methoxybenzyl)-N-methylsulfamoyl) thiophene-3-carboxamide]

pEC50 (CFTR ΔF508 mutant [1]): 6.97
pEC50 (CFTR ΔF508 mutant [3]): 7.18
SMILES: CC(C)N(c1ccc(F)cc1)S(=O)(=O)c1cc(C(N)=O)c(NC(=O)C2(O)CC2)s1 [Compound 237, 5-(N-(4-fluorophenyl)-N-isopropylsulfamoyl)-2-(1-hydroxycyclopropanecarboxamido) thiophene-3-carboxamide]

pEC50 (CFTR ΔF508 mutant [3]): 6.82
SMILES: COCCN(C1CC1)S(=O)(=O)c1cc(C(N)=O)c(NC(=O)C2(O)CC2)s1 [Compound 244, 5-(N-cyclopropyl-N-(2-methoxyethyl)sulfamoyl)-2-(1-hydroxycyclopropanecarboxamido) thiophene-3-carboxamide]

pEC50 (CFTR G551D mutant): 6.67
pEC50 (CFTR ΔF508 mutant [3]): 7.31
SMILES: NC(=O)c1cc(S(=O)(=O)c2ccc(F)cc2)sc1NC(=O)C(O)C(F)(F)F (centres unmarked) [Compound 252, 5-(4-fluorophenylsulfonyl)-2-(3,3,3-trifluoro-2-hydroxypropanamido) thiophene-3-carboxamide]

pEC50 (CFTR ΔF508 mutant [1]): 6.80
pEC50 (CFTR ΔF508 mutant [3]): 6.99
SMILES: CC1CN(S(=O)(=O)c2cc(C(N)=O)c(NC(=O)c3ccccc3C(F)(F)F)s2)CC(C)O1 (centres unmarked) [Compound 258, 5-(2,6-dimethylmorpholinosulfonyl)-2-(2-(trifluoromethyl)benzamido) thiophene-3-carboxamide]

pEC50 (CFTR ΔF508 mutant [3]): 6.84
SMILES: CC1COCC(C)N1S(=O)(=O)c1cc(C(N)=O)c(NC(=O)c2ccccc2C(F)(F)F)s1 (centres unmarked) [Compound 259, 5-(3,5-dimethylmorpholinosulfonyl)-2-(2-(trifluoromethyl)benzamido) thiophene-3-carboxamide]

pEC50 (CFTR ΔF508 mutant [1]): 7.06
pEC50 (CFTR ΔF508 mutant [3]): 7.03
SMILES: CC1(C)COCCN1S(=O)(=O)c1cc(C(N)=O)c(NC(=O)c2ccccc2C(F)(F)F)s1 [Compound 260, 5-(3,3-dimethylmorpholinosulfonyl)-2-(2-(trifluoromethyl)benzamido) thiophene-3-carboxamide]

pEC50 (CFTR ΔF508 mutant [1]): 7.03
pEC50 (CFTR ΔF508 mutant [3]): 7.50
SMILES: COCCN(C1CC1)S(=O)(=O)c1cc(C(N)=O)c(NC(=O)c2ccccc2C(F)(F)F)s1 [Compound 261, 5-(N-cyclopropyl-N-(2-methoxyethyl)sulfamoyl)-2-(2-(trifluoromethyl)benzamido) thiophene-3-carboxamide]

pEC50 (CFTR ΔF508 mutant [1]): 6.94
pEC50 (CFTR ΔF508 mutant [3]): 7.16
SMILES: CN(C1CC1)S(=O)(=O)c1cc(C(N)=O)c(NC(=O)c2ccccc2C(F)(F)F)s1 [Compound 262, 5-(N-cyclopropyl-N-methylsulfamoyl)-2-(2-(trifluoromethyl)benzamido) thiophene-3-carboxamide]

pEC50 (CFTR ΔF508 mutant [3]): 6.71
SMILES: COC(C)(C)C(=O)Nc1sc(S(=O)(=O)c2ccc(F)cc2)cc1C(N)=O [Compound 268, 5-(4-fluorophenylsulfonyl)-2-(2-methoxy-2-methylpropanamido) thiophene-3-carboxamide]
